Experiment: gradient 5% acetonitrile 3 min, to 50% in 2 min, to 85% in 15 min, held 3 min, 100 µL/min
Conditions: column: Zorbax Extend-C18 2.1 x 50 mm; eluents: water / acetonitrile, 0.1% formic acid
Method in brief: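 Using water and acetonitrile that each contained 0.1% formic acid, mixtures of ~100 pure standards were separated at 100 μL/min on a Zorbax Extend-C18 column (2.1 × 50 mm, 1.8 μm). The HPLC fed a quadrupole time-of-flight mass spectrometer working in positive and negative ionization mode, with dead and dwell volumes of 40 μL and 900 μL. Data were acquired over 3 months. Retention time was read from computationally picked adduct peaks after manual inspection of each.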

Row | Structure (SMILES) | RP-LC retention time
1 | c1cn(-c2ccc(-c3noc(-c4ccc5c(c4)OCO5)n3)cn2)cn1 | 853 s
2 | CSc1ccc(Cl)c(C(=O)Nc2cccn3c(C)nnc23)c1 | 759 s
3 | CCc1cccc(NC(=O)c2csc(-c3cn(C)c4ncccc34)n2)c1 | 1120 s
4 | O=C1COc2ccc(-c3csc(NC(=O)c4ccc(Br)cc4)n3)cc2N1 | 946 s
5 | CCCn1cnc2ccc(-c3noc(Cc4cccs4)n3)cc21 | 750 s
6 | Nc1ncnc2c1ncn2C=C=CCO | 581 s
7 | Cc1nn(-c2ccccc2)c(C)c1CCc1nn2c(-c3cccc(F)c3)nnc2s1 | 934 s
8 | COc1ccc2[nH]cc(CN3CC[C@H](c4n[nH]c(C)n4)[C@H](N(C)C)C3)c2c1 | 547 s
9 | COc1ccc(CCc2nc(-c3ccc4c(c3)nc(C)c(=O)n4C)no2)cc1 | 946 s
10 | CCn1cc(C(=O)Nc2ccc(C)cc2Cl)c2cccnc21 | 984 s
11 | COc1ccc(NC(=O)NCCn2c(C(F)(F)F)nc3cccnc32)cc1 | 701 s
12 | CCCCN(C)C(=O)c1cc2c(s1)N(CC)CCCC2 | 1100 s
13 | Oc1c(C(Nc2ccccn2)c2ccccc2F)ccc2cccnc12 (configuration not stated) | 604 s
14 | COC(=O)c1ccc(-c2nc3cnccn3c2Nc2ccc(Cl)cc2)cc1 | 953 s
15 | Cc1nc(-c2nnc(NC(=O)c3cnccn3)o2)cs1 | 567 s
16 | Cc1cccc(Nc2c(-c3ccc(O)cc3)nc3ncccn23)c1 | 700 s

Further lines, results first:

Row | RP-LC retention time | Structure (SMILES)
17 | 1150 s | Cc1cccc(Sc2nccnc2N2CCCC(C(=O)NCc3ccccc3C)C2)c1 (configuration not stated)
18 | 717 s | Cc1ccc(Nc2nc(C)cc(N3CCN(C(=O)Nc4cccc(C)c4)CC3)n2)cc1
19 | 718 s | CCOC(=O)Cc1csc(NC(=O)Cn2nc3c(cc2=O)CCCC3)n1
20 | 1190 s | Cc1cc(C)c(S(=O)(=O)N2CC(c3nc(Cc4ccccc4)no3)C2)cc1C
21 | 661 s | CC(=O)Nc1ccc2c(c1)CN(C(=O)c1ccc(F)cc1F)C(C(=O)N(C)C)C2 (configuration not stated)
22 | 801 s | CCCN1C(=O)C2CCC(=O)N2c2ccc(C(=O)NC(C)c3ccccc3)cc21 (configuration not stated)
23 | 879 s | NS(=O)(=O)c1cccnc1Nc1ccc(F)c(Cl)c1
24 | 624 s | CCc1nc2c(c(=O)n1CC(=O)NCc1cccs1)CN(Cc1ccccc1)CC2
25 | 811 s | CC1=C(c2ccccc2)S(=O)(=O)N=C1N1CCCN(C(=O)Nc2ccccc2F)CC1
26 | 958 s | Cc1ccc(S(=O)(=O)N2CCOCC2)cc1-c1nnc(-c2ccc(F)cc2)o1
27 | 1000 s | COc1cc(C2OC(c3ccc(Br)cc3)=NN2C(C)=O)ccc1OC(C)=O (configuration not stated)
28 | 613 s | Cn1c(=O)c(C(=O)NC2CC2)nc2cccnc21
29 | 854 s | O=C(Nc1ncc(SCCN2CCCC2)s1)[C@]1(c2ccc(S(=O)(=O)C3CC3)cc2)C[C@H]1C1CCCCC1
30 | 853 s | CCOc1ccc(N2CCCCn3c2nc2c3c(=O)n(CCOC)c(=O)n2C)cc1
31 | 551 s | CCN1CCN(c2c(C(=O)c3ccc(OC)cc3)cnc3cc4c(cc23)OCCO4)CC1
32 | 599 s | CCc1ccc(NC(=O)N2CC(n3cnnc3C3CCOCC3)C2)cc1
33 | 727 s | O=C(CCn1cnc2cc(-c3noc(-c4ccc5c(c4)OCO5)n3)ccc21)N1CCCC1
34 | 652 s | O=C(NCc1cscn1)C1CCN(S(=O)(=O)c2cccs2)CC1
35 | 771 s | CCOC(=O)C1CCN(C(=O)c2sc(Nc3ccc(F)cn3)nc2C)CC1
36 | 635 s | COc1ccc(CNC(=O)Cn2cc(-c3nnc(C)o3)ccc2=O)cc1
37 | 799 s | Cc1ccc(S(=O)(=O)N2CCC(CCC(=O)O)CC2)cc1
